Like-named read-outs stand apart in the source and are kept apart here. One block for each compound: values may come before it.
Key:
[1] = standard, in acetonitrile; cited from earlier work
[2] = tested on: mouse fibrosarcoma (MCA205) cells; experiment: Resazurin cell viability assay, phototoxicity; assay type: cell-based; conditions: MCA-205, light or radiation study, 1 h, MCA205, 740 nm, 60 min, 12.60 J/cm2
Experimental: (100 U ml−1), streptomycin (100 U ml−1), and 1% L-glutamine. The murine fibrosarcom a (MCA205) cells were cultured in RPMI 1640 medium with 10% fetal bovine serum (FBS), penicillin (100 U ml−1), streptomycin (100 U ml−1), and 1% L-glutamine. All cells were incubated at 37 °C in a humidified atmosphere with 5 % CO2.
(§1) Normoxia. The in vitro viability of cells exposed to the complexes was determined using a resazurin assay. C ells were seeded in 96-well plates at densities of 4,000 cells/well for CT26, MC A205 and U-87 MG cells, and 8,000 cells/well for MRC-5 and NIH/3T3 cells. A fter 24 h of growth at 37 °C wit h 5% CO2, the medium was replaced with fresh medium containing various concentrations of the compounds . Following a 4- h incubation in the dark, the medium was refres hed , and the plates were exposed to irradiation usinga LUM OS -BIO photoreactor (At las Photonics).N on- ir rad iated plates were similarly refr eshed with medium and kept in the dark for the same duration. After a 40- h r ecov ery period, a f reshly pr epar ed resazurin solution (0.2 mg/mL) was added to each well, and the plates were left in the dark for 4 h before analysis on a B i o Te k Cytation 5 Cell Imaging Multimode Reader (Agil ent Technologies). […]

[3] = tested on: mouse colon adenocarcinoma (CT26) cells; experiment: Resazurin cell viability assay, (photo)cytotoxicity, normoxia; assay type: cell-based; conditions: for IC50: Mus musculus, normoxia
Experimental: Given that most ICD studies focus on breast, non‐small cell lung carcinoma, and colon cancer, and since ICD was first discovered in mouse colon cancer cells (CT26), we initially tested our compounds on CT26 cells. Cells were incubated with nine different concentrations (mainly from 0.01 to 100 µM) of the compounds for 4 h in the dark. Then, the diluted solutions containing the compounds were replaced by fresh medium, and the cells were either illuminated or kept in the dark for 1 h more. After 2 days, IC50 values (concentration of the agent inhibiting cell growth by 50%) were determined with the resazurin assay, using chlorin e6 (Ce6) and protoporphyrin IX (PpIX) for comparison (Figure S10). The clinically approved chlorin mixture Radachlorin contains ∼80% Ce6, while 5‐aminolevulinic acid (Ameluz and Levulan) and methyl 5‐aminolevulinate (Metvix and Metvixia) serve as precursors of PpIX. Therefore, Ce6 and PpIX were used for comparison purposes.
(100 U ml−1), streptomycin (100 U ml−1), and 1% L-glutamine. […]
All cells were incubated at 37 °C in a humidified atmosphere with 5 % CO2.
as §1

[4] = Photophysical properties (fluorescence and singlet oxygen quantum yield, lifetime); assay type: physicochemical; conditions: in ethanol
Experimental: System Inc, Phoenixville, PA, USA). The excitation beam is separated by a SPEX dual […]
network monochromator (1200 lines / mm blazed at 330 nm). The fluorescence was […]
measured by the UV-Visible detector via the SPEX dual network emission […]
monochromator (1200 lines / mm blazed at 500 nm). Singlet oxygen production was […]
measured with an infrared detector InGaAs (800 - 1550 nm) via the dual network […]
emission monochromator SPEX (600 lines / mm blazed at 1 µm).
All spectra were measured using 4-sided quartz cells. The absorption values of the […]
references and samples at the excitation wavelength were adjusted to 0.2. All emission […]
spectra were normalized to the same absorbance for the purpose of comparison.
[Ru(bpy)3]2+ in acetonitrile was chosen as standard for both fluorescence and singlet […]
oxygen quantum yield determination. Fluorescence quantum yield of [ Ru(bpy)3]2+ i n […]
acetonitrile is evaluated at 0.077.[5] Singlet oxygen quantum yield of [ Ru(bpy)3]2+ i n […]
acetonitrile is evaluat ed at 0.77.[6]
Time-resolved experiments were performed using for excitation: a pulsed laser diode […]
emitting at 407 nm (LDH-P-C-400M, FWHM < 70 ps, 1 MHz) coupled with a driver […]
PDL 800- D (both PicoQuant GmbH, BERLIN, Germany) and for detection: an […]
avalanch e photodiode SPCM-AQR-15 (EG & G, VAUDREUIL, Can ada) coupled with […]
a 650 nm long- wav e p ass filter as det ection system. The acquisition was p erformed by […]
a PicoHarp 300 module with a 4 channels router PHR-800 (both PicoQuant GmbH, […]
BERLIN, Germany ). Th e fluores cence decays were recorded using the single photon […]
counting method. Data were collected up to 1000 counts accumulated in the maximum […]
channel and analyzed using Time Correlated Single Photon Counting (TCSPC) […]
software Fluofit (PicoQuant GmbH, BERLIN, Germany) based on iterative reconvolution using a Levensberg- M arquandt alg oritm, enabling the obtention of multi-exponential profiles (m ainly one or two exponenti als in our cases ). […]

MCA205 cells [5] = experiment: Annexin V-FITC/propidium iodide (AV/PI) cell viability assay by flow cytometry; assay type: cell-based, mouse; conditions: MCA205, in the dark
Source text: Regarding the optimal dose of each drug for in vivo vaccination, we continued to follow the same standards as with CT26‐luc cells, using the concentration of each drug that results in approximately 5% of live cells as the in vivo dose. The testing method remained the same, using the AV/PI dual staining assay. Negative controls still included the untreated group (direct injection of PBS solution) and the non‐ICD inducer Cisplatin. Based on the in vitro HMGB‐1 release results, Ce6 was maintained as the positive control. For a more comprehensive comparison, we also added the platinum‐based chemotherapeutic agent Oxaliplatin as a non‐PS ICD inducer, serving as an additional positive control.
As the drug concentration increased, the cells gradually shifted to dying (Q3, Annexin V^+/PI^−) or dead (Q2, Annexin V^+/PI^+ and Q1, Annexin V^−/PI^+) state. For MCA205 cells, the concentrations corresponding to approximately 5% cell survival for each drug were 500 µM Cisplatin and 1400 µM Oxaliplatin in the dark, 5.5 µM Ce6 and 3 µM Os2 under 740 nm LED light illumination. […]
(§2) incubated for 24 h. Cells were then treat ed with the determined IC50 of complexes and irradiated or kept in the dark. Supernatants were collected 12 h post-t reatm ent, and the extracellular ATP content was measured with Adenosine 5′ -triphosphate (ATP) Bioluminescent Assay Kit (Sigma-Aldrich) according tomanufacturer ’s ins truction.
Cell viability assay f o r in vivo by flow cytometry
CT26-luc or MCA205 cells were seeded in 6-well plates at a density of 1 ×1 05 cells per well and cultured for 24 h at 37 °C with 5% CO 2. The medium was replaced by various concentrations of the compound dilutions in fresh medium.For Ce6 and Os2, after 4 h incubation in the dark, the medium w as r efr eshed and the plates wer e illuminated with a LUMOS-BIO photoreactor (Atlas Photonics), followed by an additional 20- h incubation in the dark. […]
(§3) 556419) and PI (BD Biosciences, Catalog no.51- 66211E). CT26- luc cells were analyzed by flow cytometry (Beckm an Coulter Life Sciences, CytoFLEX LX Flow Cytometer). […]

MCA205 cells [6] = experiment: In vivo vaccination and rechallenge, MCA205 model; design: species or system C57BL/6 mice; conditions: vaccination with MCA205 cells pre-treated with 500 µM Cisplatin or 1400 µM Oxaliplatin (dark), 5.5 µM Ce6 or 3 µM Os2 (740 nm)
Source text: Next, we used these concentrations in the MCA205 vaccination and rechallenge model on C57BL/6 mice to test the in vivo ICD effect of Os2, following the same experimental procedure as that used for CT26‐luc cells in Figure 5A. […] Body weights remained stable across all groups throughout the study, further supporting the good in vivo biosafety of Os2.
The BALB/c female mice were randomly divided into 4 groups with each group containing 5 mice, which were named as Control group, Cisplatin group, Ce6 group and Os2 group. CT26-luc cells wer e treat ed in vitro with 600 µM Cisplatin in the dark, 6.5 µM Ce6 or 1.8 µM Os2 upon 740 nm LED light irradiation (60 min, 12.6 J cm-2) following the methods described above. Subsequently, treated CT26-luc cells (3×10^5 cells in 100 µ L sterile PBS) or 100 µ L sterile PB S were injected subcutaneously into the left flank of each mouse. One week later, mice were r echalleng ed by injection with untreated CT26- luc cells (1×10^6 cells in 100 µL sterile PBS). The mice were monitored by an in vivo imaging system (Biospace Lab, Photon Imager Optima) and the tumor volume was calculated with the following equation: tumor volume = width 2 × length × […]
In vivo vaccination study on MCA205 cells
The C57BL/6 mice were randomly divided into 5 groups with each group containing 10 mice, whi ch w ere nam ed as Control group, Cisplatin group, Oxaliplatin group, Ce6 group and Os2 group. M CA205 cells were treated in vitro with 500 µM Cisplatin o r 1400 µM Oxaliplatin in the dark, 5.5 µM Ce6 or 3 µM Os2 upon 740 nm LED light irradiation (60 min, 12.6 J cm-2) following the methods described above. Subsequently, treated MCA205 cells (3 ×10^5 cells in 100 µ L sterile PBS) or 100 µ L sterile PBS were injected subcutaneously into the left flank of each mouse. One week later, mice were rechallenged by injection with untreated MCA205 cells (1×10^6 cells in 100 µ L sterile PBS). The tumor volume was calculated with the following equation: tumor volume =

CT26‐luc cells = experiment: Annexin V-FITC/propidium iodide (AV/PI) cell viability assay by flow cytometry; assay type: cell-based, mouse; conditions: in the dark, 24 h
Experimental: Following the gold standard assessment method, the Annexin V‐FITC/propidium iodide (AV/PI) dual staining assay was conducted to screen the suitable concentrations of each drug (Figure S25). In addition, to better monitor tumor growth in vivo, luciferase‐labelled tumor cells (CT26‐luc) were used for in vivo experiments by bioluminescence imaging. […] As the concentration of each drug was increased, the proportion of live cells decreased, while the percentage of dying cells (Q3, Annexin V^+/PI^−) and dead cells (Q2, Annexin V^+/PI^+ and Q1, Annexin V^−/PI^+) increased. The concentrations at which approximately 5% of the cells remained alive (IC95) were 600 µM for Cisplatin in the dark, 1.8 µM for Os2, and 6.5 µM for Ce6 upon 740 nm LED light irradiation (60 min, 12.6 J cm^−2). These concentrations were selected for the subsequent in vivo vaccination studies. […]
as §2, with “truction. […]” for “truction.”
as §3

SMILES: [Ru+2].c1ccc(-c2ccccn2)nc1.c1ccc(-c2ccccn2)nc1.c1ccc(-c2ccccn2)nc1 [[Ru(bpy)3]2+]
- Fluorescence quantum yield [1]: 0.077
- Singlet oxygen quantum yield [1]: 0.77

SMILES: Cc1cc(O)c2c(=O)c3c(O)cc(O)c4c5c(O)cc(O)c6c(=O)c7c(O)cc(C)c8c1c2c(c34)c(c78)c65 [Hypericin]
- IC50 [2]: 1.66 ± 0.18 µM

- Fluorescence lifetime [4]: 12.1 ns
- Fluorescence quantum yield [4]: 0.05
- Singlet oxygen quantum yield [4]: 0.77
SMILES: C=CC1=C(C)c2cc3[nH]c(cc4nc(cc5[nH]c(cc1n2)c(C)c5CCC(=O)O)C(CCC(=O)O)=C4C)c(C)c3C=C [PpIX, protoporphyrin IX]
- PI (phototoxicity index, IC50 dark/IC50 light) ([3]; CT26, 620 nm): >110
- IC50 ([3]; CT26, CT26, dark, read-out: IC50 Dark): > 100 µM
- IC50 ([3]; CT26, light or radiation study, 1 h, CT26, 620 nm, 1.88 mW/cm^2, 60 min, read-out: IC50 620 nm (1 h, 6.75 J/cm^2)): 0.91 ± 0.1 µM
- IC50 [2]: 4.41 ± 0.09 µM

SMILES: O=C1[O][Pt]2([NH][C@@H]3CCCC[C@H]3[NH]2)[O]C1=O [Oxaliplatin]
- Concentration corresponding to approximately 5% cell survival (MCA205 cells [5]): 1400 µM
- Tumor growth (MCA205 cells [6]): partial suppression

SMILES: N.N.[Cl][Pt][Cl] [Cisplatin]
- Concentration at which approximately 5% of the cells remained alive (IC95) (CT26‐luc cells): 600 µM
- Concentration corresponding to approximately 5% cell survival (MCA205 cells [5]): 500 µM
- Tumor growth (MCA205 cells [6]): Almost no inhibition

From article PMC13327620, “A Deep‐Red‐Absorbing Osmium(II) Complex as a Photosensitizer for Photodynamic Therapy Inducing Immunogenic Cell Death” (Angewandte Chemie (International Ed. in English), 2026)
